We go through eight compounds from patent publication US4965280A, “Antifungal carbinols” (E. I. Du Pont de Nemours and Company, priority 1989, dated 1990).

Test [1] concerns Pyricularia oryzae. The test is described as follows: whole plant or invertebrate. Format: in vivo. Particulars: Pyricularia oryzae, 120 h, read-out: disease control rating, Ex. E, 100 PPM.
The test system of test [2] is Puccinia recondita. Put plainly: Example G wheat leaf rust. In kind it is in vivo. The note with it: 100 PPM, read-out: disease control rating, Ex. G.
In test [3] the test system is Pythium aphanadermatum. Put plainly: Example J cucumber damping off. Particulars: Pythium, 336 h; 5 kg/ha; read-out: disease control rating, Ex. J. In kind it is in vivo. A digest of the protocol:
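Seeds and soil were inoculated with a mix of sand, cereal and Pythium aphanadermatum mycelium, the fungus responsible for cucumber damping off. They were kept in a growth chamber at 30° C. for 14 days, and disease was then rated to assess control.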

The test system of test [4] is Botrytis cinerea. The test is described as follows: Example C bean grey mold. In kind it is in vivo. Particulars: Botrytis cinerea, 24 h, 100 PPM; read-out: disease control rating, Ex. C. A digest of the protocol: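 Compound is first dissolved in acetone, the acetone making up 6% of the final volume. The solution is then suspended in purified water with 250 ppm of the polyhydric alcohol ester surfactant TREM 014 to give 100 or 20 ppm. Seedlings of broad bean receive this spray until liquid runs off.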

The test system of test [5] is Plasmorpara viticola. Put plainly: Example I grape downy mildew. In kind it is in vivo. The note with it: read-out: disease control rating, Ex. I. A digest of the protocol: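 First, each compound is taken up in acetone amounting to 6% of the final volume. It is then suspended in purified water containing 250 ppm of the polyhydric alcohol ester surfactant TREM 014, at 100 or 20 ppm. Finally, the suspension is sprayed onto grape seedlings until run-off.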

The test system of test [6] is Aspergillus fumigatus ATCC 28214. The test is described as follows: In vitro antifungal MIC, microtiter broth dilution. The note with it: Aspergillus fumigatus, ATCC28214, 24 h, read-out: MIC values, A. fumigatus, 30°, 24 hours. In general terms: Broth dilution looks for growth in wells or tubes with falling amounts of substance.
The test system of test [7] is Candida albicans ATCC 11651. Put plainly: In vitro antifungal MIC, microtiter broth dilution. Particulars: Candida albicans, ATCC11651, 24 h, read-out: MIC values, C. albicans, 30°, 24 hours.
Test [8] deals with Fusarium oxysporum f. sp. cucumerinum. The test is described as follows: Example L cucumber wilt. In kind it is in vivo. Particulars: 336 h, 5 kg/ha, read-out: disease control rating, Ex. L. As to the method: […] Seeds and soil were then inoculated with a mixture of sand, cereal and mycelium of the fungus Fusarium oxysporum f. sp. cucumerinum, causal agent of cucumber wilt, and incubated in a growth chamber at 30° C. for 14 days. Disease ratings were then made.

In test [9] the test system is Erysiphe graminis f. sp. tritici. The test is described as follows: Example D wheat powdery mildew. The note with it: Blumeria graminis, 144 h; 100 PPM; read-out: disease control rating, Ex. D. In kind it is in vivo. A digest of the protocol:
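Wheat seedlings receive a run-off foliar spray of compound suspended in purified water at 100 or 20 ppm. The carrier holds 250 ppm TREM 014 plus acetone amounting to 6% of final volume.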

Test [10] relates to Sclerotium rolfsii. Put plainly: Example M southern blight. Format: in vivo. Particulars: Agroathelia rolfsii, 336 h; 5 kg/ha; read-out: disease control rating, Ex. M. The protocol: […] Seeds and soil were then inoculated with a mixture of sand, cereal and mycelium of the fungus Sclerotium rolfsii, causal agent of sourthern blight, and incubated in a growth chamber at 30° C. for 14 days. Disease ratings were then made.

Test [11] deals with Rhizoctonia solani. The test is described as follows: Example K cotton blight. In kind it is in vivo. Particulars: 336 h, 5 kg/ha, read-out: disease control rating, Ex. K. As to the method: […] Seeds and soil were then inoculated with a mixture of sand, cereal and mycelium of the fungus Rhizoctonia solani, causal agent of cotton blight, and incubated in a growth chamber at 30° C. for 14 days. Disease ratings were then made.

The subject of test [12] is Phytophthora infestans. Put plainly: whole plant or invertebrate. Particulars: Phytophthora infestans, in Solanum lycopersicum, read-out: disease control rating, Ex. H, 100 PPM. In kind it is in vivo.
Test [13] relates to Cercosporidium personatum. The test is described as follows: Example B Peanut Late Leafspot. Format: in vivo. The note with it: Nothopassalora personata; 100 PPM; read-out: disease control rating, Ex. B. A digest of the protocol:
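Each compound is first taken up in acetone, which makes up 6% of the final spray volume. It is then suspended in purified water with 250 ppm TREM 014 at 100 or 20 ppm. Seedlings of peanut are sprayed until run-off.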

The test system of test [14] is Venturia inaequalis. Put plainly: Example A apple scab. In kind it is in vivo. The note with it: 100 PPM, read-out: disease control rating, Ex. A. A digest of the protocol: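 Apple seedlings receive a run-off spray of compound suspended at 100 or 20 ppm. The spray liquid is purified water holding 250 ppm TREM 014, a polyhydric alcohol ester surfactant, plus acetone at 6% of final volume as the solvent.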

For test [15], the system named is Candida albicans ATCC 11651. Put plainly: In vivo systemic Candida infection in mice, primary assay. Particulars: Candida albicans, 150 mg/kg per day, read-out: % Survival. Also noted: species or system Candida albicans; CF-1 female mice. A digest of the protocol:
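CF-1 female mice (20 g, 10 per group) were infected IV with 0.2 ml of 1×10^7/ml C. albicans ATCC 11651, then given test compound subcutaneously at 50 or 150 mg/kg/day at 1 and 6 h post-infection and once daily for three more days. Survival was followed for 21 days against infected untreated mice; ≥70% protection at 14 days was scored active.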

The test system of test [16] is Rhizoctonia solani. Put plainly: Example F rice sheath blight. The note with it: Rhizoctonia solani, 144 h, 100 PPM; read-out: disease control rating, Ex. F. In kind it is in vivo. A digest of the protocol:
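Rice seedlings receive a run-off spray of compound suspended at 100 or 20 ppm. The carrier is purified water containing 250 ppm of a polyhydric alcohol ester surfactant, with acetone making up 6% of the final volume.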

Each structure is given as a SMILES string. Converted amounts (≈) assume the structure as drawn. Like-named read-outs stand apart in the source and are kept apart here. Bounds are passed on as bounds.

For `C=C(c1cc(Cl)cc(Cl)c1)C(O)(Cn1cncn1)c1ccc(F)cc1F` (stereo not shown) [Example 815], the pest or weed control at 100 ppm in test [1] turned out to be 2%; in test [2], 97%; in test [4] it was 0%; in [5], 65%; in [9], 62%; in test [12] it was 0%. Moreover, the pest or weed control at 100 ppm in test [13] came to 98%; in test [14], 40%. In addition, the pest or weed control at 5000 g/ha in test [3], in test [8], in test [10] and in test [11] was 0% each time. Also, the MIC in test [6] was over 100 µg/mL; in [7] it was 0.03 µg/mL (≈ 0.0757 µM).
With `C=C(c1ccccc1)C(O)(Cn1cncn1)c1ccccc1F` (stereo not shown) [Example 594], the pest or weed control at 100 ppm in [1] was determined as 2%; in test [2] it was 100%; in [4] it was 93%; in test [5] it was 79%; in test [9], 77%; in test [12], 0%. For the same compound, the pest or weed control at 100 ppm in test [13] was 100%; in test [14], 86%. The pest or weed control at 5000 g/ha worked out at 0% in test [3], 100% in [8], 50% in [10] and 60% in [11]. Moreover, the MIC in test [6] and in [7] was 0.8 µg/mL (≈ 2.59 µM) in each case. The responders at 150 mg/kg in [15] (ATCC11651, 168 h, day 7) is 70%; in [15] (ATCC11651, 336 h, day 14), 10%; in [15] (ATCC11651, 504 h, day 21), 0%.
Take `C=C(c1ccccc1)C(O)(Cn1cncn1)c1cc(Cl)cc(Cl)c1` (stereo not shown) [Example 603]: the pest or weed control at 100 ppm in test [1] amounted to 0%; in [2], 95%; in test [4], 91%; in test [5], 0%; in test [9] it was 69%; in [12] it was 0%. For the same compound, the pest or weed control at 100 ppm in test [13] stood at 97%; in test [14], 44%. Besides, the pest or weed control at 5000 g/ha in [3], in test [8], in test [10] and in [11] was 0% in each case. The values for the MIC in test [6] and in [7] were over 100 µg/mL and 0.1 µg/mL (≈ 0.278 µM), respectively. Besides, the responders at 150 mg/kg in test [15] (ATCC11651, 168 h, day 7) stood at 10%; in [15] (ATCC11651, 336 h, day 14) it was 0%; in test [15] (ATCC11651, 504 h, day 21), 0%.
As to `C=C(CO)C(O)(Cn1cncn1)c1ccc(Br)cc1` (stereo not shown) [Example 451], the pest or weed control at 100 ppm in test [1] turned out to be 0%; in test [2] it was 0%; in test [16], 0%; in [4] it was 72%; in test [5], 0%; in [9], 0%. Besides, the pest or weed control at 100 ppm was 0% in test [12], 100% in test [13] and 16% in [14]. Moreover, the pest or weed control at 5000 g/ha in [3], in test [8], in [10] and in test [11] was 0% in each case. For the same compound, the MIC in test [7] is 12.5 µg/mL (≈ 38.6 µM).
With `C=C(c1ccccc1)C(O)(Cn1cncn1)c1ccc(F)c(Cl)c1` (stereo not shown) [Example 605], the pest or weed control at 100 ppm amounted to 0% in [1]; 100% in test [2]; 32% in test [4]; 0% in test [5]; 81% in [9]; 0% in test [12]. In addition, the pest or weed control at 100 ppm was 99% in [13] and 70% in test [14]. The pest or weed control at 5000 g/ha in [3], in [8], in test [10] and in [11] was 0% throughout. Besides, the figures for the MIC in [6] and in test [7] were 100 µg/mL (≈ 291 µM) and 0.2 µg/mL (≈ 0.582 µM), respectively.
Take `C=C(CO)C(O)(Cn1cncn1)c1ccc(Cl)cc1Cl` (stereo not shown) [Example 449]: the pest or weed control at 100 ppm in [1] worked out at 76%; in [2], 30%; in [16] it was 13%; in test [4], 24%; in [5] it was 51%; in [9], 0%. Further, the pest or weed control at 100 ppm in [12] was determined as 0%; in test [13], 0%; in test [14], 71%. In addition, the pest or weed control at 5000 g/ha in [3], in test [8], in test [10] and in [11] was 0% throughout. For the same compound, in [7], the MIC is at most 0.4 µg/mL.
For `C=C(CO)C(O)(Cn1cncn1)c1ccc(-c2ccccc2)cc1` (stereo not shown) [Example 452], the pest or weed control at 100 ppm was determined as 0% in test [1]; 30% in test [2]; 67% in test [16]; 54% in test [4]; 0% in test [5]; 46% in test [9]. Moreover, the pest or weed control at 100 ppm was determined as 0% in test [12], 0% in test [13] and 36% in test [14]. In addition, the pest or weed control at 5000 g/ha in test [3], in [8], in test [10] and in test [11] was 0% throughout. In addition, the minimal inhibitory concentration (MIC) in test [7] was over 100 µg/mL.
Regarding `C=C(c1ccc(F)cc1)C(O)(Cn1ncnc1SCC#N)c1ccccc1F` (stereo not shown) [Example 1451], the pest or weed control at 100 ppm in test [1] was determined as 2%; in [2], 93%; in test [4], 48%; in test [5], 79%; in [9], 77%; in test [12] it was 0%. The pest or weed control at 100 ppm stood at 84% in test [13] and 86% in test [14]. The pest or weed control at 5000 g/ha in test [3], in test [8], in test [10] and in test [11] was 0% in each case. Moreover, the MIC in test [6] and in test [7] was over 100 µg/mL in each case.

As usually defined, the MIC is the least concentration at which growth counts as inhibited.
